{"source": "paper PMC7758046", "about": "“Novel piperazine–chalcone hybrids and related pyrazoline analogues targeting VEGFR-2 kinase; design, synthesis, molecular docking studies, and anticancer evaluation” (Journal of Enzyme Inhibition and Medicinal Chemistry, 2020)", "data": [{"smiles": "N#Cc1ccccc1C=CC(=O)c1ccc(N2CCNCC2)cc1", "note": "[Va, 2-(3-Oxo-3-(4-(piperazin-1-yl)phenyl)prop-1-enyl)benzonitrile]", "values": [{"measurement": "melting point", "value": 150, "unit": "°C"}]}, {"smiles": "N#Cc1ccc(C=CC(=O)c2ccc(N3CCNCC3)cc2)cc1", "note": "[Vb, 4-(3-Oxo-3–(4-(piperazin-1-yl)phenyl)prop-1-enyl)benzonitrile]", "values": [{"measurement": "melting point", "value": 170, "unit": "°C"}]}, {"smiles": "O=C(C=Cc1ccccc1F)c1ccc(N2CCNCC2)cc1", "note": "[Vc, 3-(2-Fluorophenyl)-1-(4-(piperazin-1-yl)phenyl)prop-2-en-1-one]", "values": [{"measurement": "melting point", "value": 176, "unit": "°C"}]}, {"smiles": "O=C(C=Cc1cc([N+](=O)[O-])ccc1O)c1ccc(N2CCNCC2)cc1", "note": "[Vg, 3-(2-Hydroxy-5-nitrophenyl)-1-(4-(piperazin-1-yl)phenyl)prop-2-en-1-one]", "values": [{"measurement": "melting point", "value": 185, "unit": "°C"}]}, {"smiles": "O=C(C=Cc1ccco1)c1ccc(N2CCNCC2)cc1", "note": "[Vh, 3-(Furan-2-yl)-1-(4-(piperazin-1-yl)phenyl)prop-2-en-1-one]", "values": [{"measurement": "melting point", "value": 190, "unit": "°C"}]}]}
